In patent US12673956B2, “Oxadiazolyl dihydropyrano[2,3-b]pyridine inhibitors of HIPK2 for treating kidney fibrosis” (ICAHN SCHOOL OF MEDICINE AT MOUNT SINAI, priority 2021, dated 2026):

system: TGF/SMAD Signaling Pathway SBE Reporter—HEK293 Cell Line; test: Luciferase screen, TGF/SMAD SBE reporter HEK293 cells stimulated with TGFβ; assay type: cell-based; conditions: Homo sapiens, HEK293, 18 h, read-out: Luciferase IC50 nM
Description: For the data in Table 1, the Bight-Glo™ Luciferase Assay System from Promega was used with TGF/SMAD Signaling Pathway SBE Reporter—HEK293 Cell Line from BPSbioscience. On day 1 SBE reporter-HEK293 cells were seeded at a density of 25,000 cells per well into a white clear-bottom 96-well microplate in 100 μl of growth medium without geneticin. The plate was incubated at 37° C. in a CO2 incubator for 24 hrs. The wells were renewed with 60 μL assay medium and treated with test compounds by adding 5 μL of compounds in medium. The concentration of test compound in medium is adjusted so that 5 μL will provide the desired molarity of the solution. For example, if the desired test concentration is 30 µM, then 5 μL of […] compound is added. After 4 hours, TGFβ was added to 10 ng/mL. The plate was incubated at 37° C. in a CO2 incubator overnight (18 hours). One hour prior to assay all medium was replaced. The luciferase assay was run using ONE-Step™ Luciferase Assay System by adding 100 al of ONE-Step™ Luciferase reagent per well, rocking at room temperature for ~15 to 30 minutes and measuring luminescence using a luminometer. The signals were normalized to percentage inhibition, with non-TGF treated cells as 100% inhibition, and the data were processed by Graphpad Prism.

Row | SMILES | IC50 [nM]
1 | CC1(C)Oc2ncc(-c3nc(-c4ccc(Cl)c(F)c4)no3)cc2CC1O (stereo in doubt) [Example 35, (S)-6-(3-(4-chloro-3-fluorophenyl)-1,2,4-oxadiazol-5-yl)-2,2-dimethyl-3,4-dihydro-2H-pyrano[2,3-b]pyridin-3-ol] | 22
2 | Cc1cc(-c2noc(-c3cnc4c(c3)C[C@H](O)C(C)(C)O4)n2)ccc1Cl [Example 36, (3S)-6-[3-(4-chloro-3-methyl-phenyl)-1,2,4-oxadiazol-5-yl]-2,2-dimethyl-3,4-dihydropyrano[2,3-b]pyridin-3-ol] | 52
3 | CC1(C)Oc2ncc(-c3nc(-c4ccc(Cl)c(F)c4)no3)cc2C[C@@H]1O [Example 34, (S)-6-(3-(4-chloro-3-fluorophenyl)-1,2,4-oxadiazol-5-yl)-2,2-dimethyl-3,4-dihydro-2H-pyrano[2,3-b]pyridin-3-ol] | 39
4 | CC1(C)Oc2ncc(-c3nc(-c4ccc(Cl)c(Cl)c4)no3)cc2C[C@@H]1O [Example 22, (S)-6-(3-(3,4-dichlorophenyl)-1,2,4-oxadiazol-5-yl)-2,2-dimethyl-3,4-dihydro-2H-pyrano[2,3-b]pyridin-3-ol] | 43
5 | CC1(C)Oc2ncc(-c3nc(-c4ccc(Br)cc4)no3)cc2[C@H](O)[C@H]1O [Example 8, (3R,4S)-6-(3-(4-bromophenyl)-1,2,4-oxadiazol-5-yl)-2,2-dimethyl-3,4-dihydro-2H-pyrano[2,3-b]pyridine-3,4-diol] | 11300
6 | CC1(C)Oc2ncc(-c3nc(-c4ccc(Br)cc4)no3)cc2C[C@@H]1O [Example 7, (S)-6-(3-(4-bromophenyl)-1,2,4-oxadiazol-5-yl)-2,2-dimethyl-3,4-dihydro-2H-pyrano[2,3-b]pyridin-3-ol] | 37
7 | CC1(C)Oc2ncc(-c3nc(-c4ccc(Br)cc4)no3)cc2C(N)C1O (stereo not shown) [Example 2, 4-amino-6-(3-(4-bromophenyl)-1,2,4-oxadiazol-5-yl)-2,2-dimethyl-3,4-dihydro-2H-pyrano[2,3-b]pyridin-3-ol] | 8150
8 | CCn1ccc(-c2noc(-c3cnc4c(c3)C[C@@H](O)C(C)(C)O4)n2)n1 [Example 29, (R)-6-(3-(1-ethyl-1H-pyrazol-3-yl)-1,2,4-oxadiazol-5-yl)-2,2-dimethyl-3,4-dihydro-2H-pyrano[2,3-b]pyridin-3-ol] | 56
9 | CC1(C)Oc2ncc(-c3nc(-c4ncco4)no3)cc2C[C@@H]1O [Example 32, (S)-2,2-dimethyl-6-(3-(oxazol-2-yl)-1,2,4-oxadiazol-5-yl)-3,4-dihydro-2H-pyrano[2,3-b]pyridin-3-ol] | 65
10 | Cc1ccc(-c2noc(-c3cnc4c(c3)C[C@H](O)C(C)(C)O4)n2)cc1 [Example 21, (S)-2,2-dimethyl-6-(3-p-tolyl-1,2,4-oxadiazol-5-yl)-3,4-dihydro-2H-pyrano[2,3-b]pyridin-3-ol] | 17
11 | CC1(C)Oc2ncc(-c3nc(-c4ccc(Br)cc4)no3)cc2C[C@H]1O [Example 6, (R)-6-(3-(4-bromophenyl)-1,2,4-oxadiazol-5-yl)-2,2-dimethyl-3,4-dihydro-2H-pyrano[2,3-b]pyridin-3-ol] | 27
12 | CC1(C)Oc2ncc(-c3nc(-c4ncco4)no3)cc2C[C@H]1O [Example 33, (3R)-2,2-dimethyl-6-(3-oxazol-2-yl-1,2,4-oxadiazol-5-yl)-3,4-dihydropyrano[2,3-b]pyridin-3-ol] | 76
13 | CC1(C)Oc2ncc(-c3nc(-c4ccc(Br)cc4)no3)cc2[C@@H](O)[C@@H]1O [Example 9, (3S,4R)-6-(3-(4-bromophenyl)-1,2,4-oxadiazol-5-yl)-2,2-dimethyl-3,4-dihydro-2H-pyrano[2,3-b]pyridine-3,4-diol] | 2420
14 | CC1(C)Oc2ncc(-c3nc(-c4ccc(Br)cc4)no3)cc2CC1O (stereo not shown) [Example 1, 6-(3-(4-bromophenyl)-1,2,4-oxadiazol-5-yl)-2,2-dimethyl-3,4-dihydro-2H-pyrano[2,3-b]pyridin-3-ol] | 43
15 | CC1(C)Oc2ncc(-c3nc(-c4nc(Cl)cs4)no3)cc2C[C@@H]1O [Example 28, (S)-6-(3-(4-chlorothiazol-2-yl)-1,2,4-oxadiazol-5-yl)-2,2-dimethyl-3,4-dihydro-2H-pyrano[2,3-b]pyridin-3-ol] | 13

same assay, conditions: Homo sapiens; SBE reporter-HEK293 cells, TGFβ 10 ng/mL, 18 hours; read-out: Luciferase IC50

Row | SMILES | IC50 [nM]
16 | CC1(C)Oc2ncc(-c3nc(-c4ncc(Cl)s4)no3)cc2C[C@@H]1O [Example 23, (S)-6-(3-(5-chlorothiazol-2-yl)-1,2,4-oxadiazol-5-yl)-2,2-dimethyl-3,4-dihydro-2H-pyrano[2,3-b]pyridin-3-ol] | 242
17 | CC1(C)Oc2ncc(-c3nc(-c4cc(Cl)cc(Cl)c4)no3)cc2C[C@H]1O [Example 40, (R)-6-(3-(3,5-dichlorophenyl)-1,2,4-oxadiazol-5-yl)-2,2-dimethyl-3,4-dihydro-2H-pyrano[2,3-b]pyridin-3-ol] | 843
18 | CO[C@H]1Cc2cc(-c3nc(-c4ccc(Cl)cc4)no3)cnc2OC1(C)C [Example 19, (S)-6-(3-(4-chlorophenyl)-1,2,4-oxadiazol-5-yl)-3-methoxy-2,2-dimethyl-3,4-dihydro-2H-pyrano[2,3-b]pyridine] | 340
19 | Cn1ccc(-c2noc(-c3cnc4c(c3)C[C@@H](O)C(C)(C)O4)n2)n1 [Example 17, (R)-2,2-dimethyl-6-(3-(1-methyl-1H-pyrazol-3-yl)-1,2,4-oxadiazol-5-yl)-3,4-dihydro-2H-pyrano[2,3-b]pyridin-3-ol] | 18
20 | Cn1ccc(-c2noc(-c3cnc4c(c3)C[C@H](O)C(C)(C)O4)n2)n1 [Example 18, (S)-2,2-dimethyl-6-(3-(1-methyl-1H-pyrazol-3-yl)-1,2,4-oxadiazol-5-yl)-3,4-dihydro-2H-pyrano[2,3-b]pyridin-3-ol] | 28
21 | CC1(C)C[C@H](O)c2cc(-c3nc(-c4ccc(Br)cc4)no3)cnc2O1 (single isomer, unassigned) [Example 11] | 57
22 | CC1(C)Oc2ncc(-c3nc(-c4nc(Cl)cs4)no3)cc2C[C@H]1O [Example 27, (R)-6-(3-(4-chlorothiazol-2-yl)-1,2,4-oxadiazol-5-yl)-2,2-dimethyl-3,4-dihydro-2H-pyrano[2,3-b]pyridin-3-ol] | 705
23 | CC1(C)Oc2ncc(-c3nc(-c4ncc(Cl)s4)no3)cc2C[C@H]1O [Example 25, (R)-6-(3-(5-chlorothiazol-2-yl)-1,2,4-oxadiazol-5-yl)-2,2-dimethyl-3,4-dihydro-2H-pyrano[2,3-b]pyridin-3-ol] | 206
24 | Cc1cc(-c2noc(-c3cnc4c(c3)C[C@@H](O)C(C)(C)O4)n2)ccc1Cl [Example 37, (3R)-6-[3-(4-chloro-3-methyl-phenyl)-1,2,4-oxadiazol-5-yl]-2,2-dimethyl-3,4-dihydropyrano[2,3-b]pyridin-3-ol] | 50
25 | C[C@@H]1CCc2cc(-c3nc(-c4ccc(Br)cc4)no3)cnc2O1 [Example 4, ethyl (R)-6-(3-(4-bromophenyl)-1,2,4-oxadiazol-5-yl)-2-methyl-3,4-dihydro-2H-pyrano[2,3-b]pyridine] | 126
26 | CC1(C)Oc2ncc(-c3nc(-c4cccc(F)c4)no3)cc2C[C@H]1O [Example 38, (R)-6-(3-(3-fluorophenyl)-1,2,4-oxadiazol-5-yl)-2,2-dimethyl-3,4-dihydro-2H-pyrano[2,3-b]pyridin-3-ol] | 148
27 | C[C@H]1CCc2cc(-c3nc(-c4ccc(Br)cc4)no3)cnc2O1 [Example 3] | 234
28 | CC1(C)CC(O)c2cc(-c3nc(-c4ccc(Br)cc4)no3)cnc2O1 (stereo not shown) [Example 5, 6-(3-(4-bromophenyl)-1,2,4-oxadiazol-5-yl)-2,2-dimethyl-3,4-dihydro-2H-pyrano[2,3-b]pyridin-4-ol] | 86
29 | CC1(C)Oc2ncc(-c3nc(-c4ccc(F)cc4)no3)cc2C[C@@H]1O [Example 20, (S)-6-(3-(4-fluorophenyl)-1,2,4-oxadiazol-5-yl)-2,2-dimethyl-3,4-dihydro-2H-pyrano[2,3-b]pyridin-3-ol] | 223
30 | CC1(C)Oc2ncc(-c3nc(-c4nccs4)no3)cc2CC1O (stereo in doubt) [Example 14, (R)-2,2-dimethyl-6-(3-(thiazol-2-yl)-1,2,4-oxadiazol-5-yl)-3,4-dihydro-2H-pyrano[2,3-b]pyridin-3-ol] | 1370
31 | CC1(C)Oc2ncc(-c3nc(-c4cccc(Cl)c4)no3)cc2C[C@H]1O [Example 31, (R)-6-(3-(3-chlorophenyl)-1,2,4-oxadiazol-5-yl)-2,2-dimethyl-3,4-dihydro-2H-pyrano[2,3-b]pyridin-3-ol] | 152
32 | CC1(C)Oc2ncc(-c3nc(-c4cccc(Cl)c4)no3)cc2C[C@@H]1O [Example 30, (S)-6-(3-(3-chlorophenyl)-1,2,4-oxadiazol-5-yl)-2,2-dimethyl-3,4-dihydro-2H-pyrano[2,3-b]pyridin-3-ol] | 136
33 | Cc1cnc(-c2noc(-c3cnc4c(c3)C[C@H](O)C(C)(C)O4)n2)s1 [Example 24, (S)-2,2-dimethyl-6-(3-(5-methylthiazol-2-yl)-1,2,4-oxadiazol-5-yl)-3,4-dihydro-2H-pyrano[2,3-b]pyridin-3-ol] | 822
34 | CC1(C)Oc2ncc(-c3nc(-c4ccc(Cl)cc4)no3)cc2CC1O (stereo in doubt) [Example 12, (R)-6-(3-(4-chlorophenyl)-1,2,4-oxadiazol-5-yl)-2,2-dimethyl-3,4-dihydro-2H-pyrano[2,3-b]pyridin-3-ol] | 89
